Results taken from ChEMBL document CHEMBL1201862, “PubChem BioAssay data set” (2004).
Active and inactive are the calls of the source.

Columns and labels:
[1] = biological target: T1, Sentrin-specific protease 6 (Homo sapiens, UniProt Q9GZR1); type: functional;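 further: Luminescence-based dose-response confirmatory assay of SENP6 inhibition, following up an ultra-high-throughput screen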
T1 sequence (Q9GZR1 whole entry): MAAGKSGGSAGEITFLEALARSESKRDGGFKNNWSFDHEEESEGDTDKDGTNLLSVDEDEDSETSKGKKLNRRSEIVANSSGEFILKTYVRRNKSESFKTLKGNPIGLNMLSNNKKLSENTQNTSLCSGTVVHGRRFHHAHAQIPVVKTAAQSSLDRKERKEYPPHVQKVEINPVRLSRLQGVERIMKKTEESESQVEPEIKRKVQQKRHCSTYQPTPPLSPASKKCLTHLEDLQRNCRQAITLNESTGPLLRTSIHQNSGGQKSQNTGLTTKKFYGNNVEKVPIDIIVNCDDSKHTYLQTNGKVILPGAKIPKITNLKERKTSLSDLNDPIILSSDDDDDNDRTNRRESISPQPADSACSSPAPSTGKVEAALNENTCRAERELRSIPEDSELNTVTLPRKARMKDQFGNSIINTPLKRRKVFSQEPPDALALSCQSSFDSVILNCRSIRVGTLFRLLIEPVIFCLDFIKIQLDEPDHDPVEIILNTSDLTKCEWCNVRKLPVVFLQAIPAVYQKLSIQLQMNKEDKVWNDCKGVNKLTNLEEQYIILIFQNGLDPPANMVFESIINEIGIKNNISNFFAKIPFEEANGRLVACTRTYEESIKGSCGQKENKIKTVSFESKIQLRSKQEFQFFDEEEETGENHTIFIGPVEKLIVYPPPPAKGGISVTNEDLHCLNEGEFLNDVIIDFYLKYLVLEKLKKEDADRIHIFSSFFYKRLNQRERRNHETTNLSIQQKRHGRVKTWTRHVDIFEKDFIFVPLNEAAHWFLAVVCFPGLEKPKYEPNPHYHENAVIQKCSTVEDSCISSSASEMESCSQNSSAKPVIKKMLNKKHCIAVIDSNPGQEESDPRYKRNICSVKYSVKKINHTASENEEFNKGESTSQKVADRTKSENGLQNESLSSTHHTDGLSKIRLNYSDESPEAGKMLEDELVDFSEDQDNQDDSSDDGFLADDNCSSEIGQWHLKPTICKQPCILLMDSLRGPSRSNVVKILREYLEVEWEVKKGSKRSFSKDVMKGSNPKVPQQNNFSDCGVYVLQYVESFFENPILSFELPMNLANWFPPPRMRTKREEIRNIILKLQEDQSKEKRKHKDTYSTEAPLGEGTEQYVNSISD

[2] = system: BJ; assay: BJ-TERT fibroblast viability loss – cell-based, RAS-independent, luminescence, dose response (AID 1933); type: functional; conditions: Homo sapiens
[3] = system: BJ; assay: cells; type: functional, cell-based; conditions: Homo sapiens
[4] = DRD fibroblast viability loss – cell-based, non-viral oncogenic, luminescence, dose response (AID 1934); type: functional; conditions: Homo sapiens
[5] = cells; type: functional
[6] = biological target: Genome polyprotein (dengue virus type 2, UniProt P29990); assay: flavivirus cap methylation enzyme inhibition – biochemical, confirmation dose response, primary screen (AID 588689); type: functional
[7] = luciferase reporter signal suppression in cells – H4 neuroglioma cells, luminescence, dose response (AID 1990); type: functional, cell-based
[8] = alpha-synuclein stem-loop luciferase translation blockers – H4 neuroglioma cells, luminescence, confirmation (AID 1988); type: functional, cell-based
[9] = system: HEK293; assay: optical interference in Abeta FP readout, dose response, artefact control for IDE activator project, biochemical, fluorescence polarization (AID 588442); type: functional, cell-based; conditions: Homo sapiens
[10] = biological target: Heat shock protein HSP 90-alpha (Homo sapiens, UniProt P07900); assay: Luminescence-based dose response biochemical high throughput screening assay for inhibitors of the Heat Shock Protein 90 (HSP90). [Related pubchem assays: 1831 (Summary AID.), 1846 (Confirmation screen.), 1789 (Primary screen.)]
[11] = biological target: Cyclin-dependent kinase 2 (Homo sapiens, UniProt P24941); type: functional;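 further: CDK2 measured as one member of a broad kinome profiling panel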
[12] = biological target: Serine/threonine-protein kinase pim-1 (Homo sapiens, UniProt P11309); type: functional
[13] = biological target: Serine/threonine-protein kinase PAK 4 (Homo sapiens, UniProt O96013); type: functional;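 further: value obtained within a kinome profiling panel in which PAK4 was one of the panel members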
[14] = biological target: Serine/threonine-protein kinase PAK 1 (Homo sapiens, UniProt Q13153); type: functional
[15] = biological target: Ribosomal protein S6 kinase alpha-5 (Homo sapiens, UniProt O75582); type: functional
[16] = biological target: Tyrosine-protein kinase Lyn (Homo sapiens, UniProt P07948); type: functional;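 further: lyn as one member of a kinase panel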
[17] = biological target: LIM domain kinase 1 (Homo sapiens, UniProt P53667); assay: Navigating the Kinome. Panel member name: LIMK1; type: functional
[18] = biological target: Mitogen-activated protein kinase kinase kinase 20 (Homo sapiens, UniProt Q9NYL2); type: functional
[19] = biological target: Protein kinase C gamma type (Homo sapiens, UniProt P05129); type: functional
[20] = biological target: Receptor-type tyrosine-protein kinase FLT3 (Homo sapiens, UniProt P36888); type: functional;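 further: FLT3 was tested as one member of a kinome-wide kinase panel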
[21] = biological target: Receptor tyrosine-protein kinase erbB-2 (Homo sapiens, UniProt P04626); assay: Navigating the Kinome. Panel member name: ERBB2; type: functional
[22] = biological target: Serine/threonine-protein kinase Chk1 (Homo sapiens, UniProt O14757); type: functional;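 further: measured as one member of a kinome-wide kinase profiling panel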
[23] = biological target: Misshapen-like kinase 1 (Homo sapiens, UniProt Q8N4C8); type: functional;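 further: kinome panel screen with MINK as the panel member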
[24] = biological target: Serine/threonine-protein kinase Nek4 (Homo sapiens, UniProt P51957); type: functional
[25] = biological target: Focal adhesion kinase 1 (Homo sapiens, UniProt Q05397); type: functional;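 further: measured as one member of a kinome panel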
[26] = biological target: RAC-alpha serine/threonine-protein kinase (Homo sapiens, UniProt P31749); type: functional;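 further: AKT1 affinity measured as one member of a kinome-wide kinase profiling panel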
[27] = biological target: Rho-associated protein kinase 1 (Homo sapiens, UniProt Q13464); type: functional;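 further: measured within a broad kinome-wide panel profiling many kinases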
[28] = biological target: Tyrosine-protein kinase Fyn (Homo sapiens, UniProt P06241); type: functional
[29] = biological target: Serine/threonine-protein kinase Nek2 (Homo sapiens, UniProt P51955); type: functional
[30] = biological target: STE20-like serine/threonine-protein kinase (Homo sapiens, UniProt Q9H2G2); type: functional
[31] = biological target: Dual specificity protein kinase CLK4 (Homo sapiens, UniProt Q9HAZ1); type: functional
[32] = biological target: Serine/threonine-protein kinase MRCK alpha (Homo sapiens, UniProt Q5VT25); type: functional

Chain of Serine/threonine-protein kinase PAK 1 (Q13153 whole entry): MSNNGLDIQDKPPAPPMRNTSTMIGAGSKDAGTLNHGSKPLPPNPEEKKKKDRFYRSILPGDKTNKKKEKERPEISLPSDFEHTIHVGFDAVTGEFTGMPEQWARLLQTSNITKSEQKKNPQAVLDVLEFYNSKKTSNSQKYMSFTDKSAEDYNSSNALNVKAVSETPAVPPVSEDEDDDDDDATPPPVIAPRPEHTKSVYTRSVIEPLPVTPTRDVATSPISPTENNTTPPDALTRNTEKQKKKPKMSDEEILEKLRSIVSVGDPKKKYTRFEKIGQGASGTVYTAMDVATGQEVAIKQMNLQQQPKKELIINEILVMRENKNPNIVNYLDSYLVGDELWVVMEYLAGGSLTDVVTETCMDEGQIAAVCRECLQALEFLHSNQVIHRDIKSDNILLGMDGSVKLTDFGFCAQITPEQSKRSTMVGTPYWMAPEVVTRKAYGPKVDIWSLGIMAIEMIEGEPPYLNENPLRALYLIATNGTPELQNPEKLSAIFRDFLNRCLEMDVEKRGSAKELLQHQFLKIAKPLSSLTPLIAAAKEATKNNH
Chain of Serine/threonine-protein kinase Nek4 (P51957 whole entry): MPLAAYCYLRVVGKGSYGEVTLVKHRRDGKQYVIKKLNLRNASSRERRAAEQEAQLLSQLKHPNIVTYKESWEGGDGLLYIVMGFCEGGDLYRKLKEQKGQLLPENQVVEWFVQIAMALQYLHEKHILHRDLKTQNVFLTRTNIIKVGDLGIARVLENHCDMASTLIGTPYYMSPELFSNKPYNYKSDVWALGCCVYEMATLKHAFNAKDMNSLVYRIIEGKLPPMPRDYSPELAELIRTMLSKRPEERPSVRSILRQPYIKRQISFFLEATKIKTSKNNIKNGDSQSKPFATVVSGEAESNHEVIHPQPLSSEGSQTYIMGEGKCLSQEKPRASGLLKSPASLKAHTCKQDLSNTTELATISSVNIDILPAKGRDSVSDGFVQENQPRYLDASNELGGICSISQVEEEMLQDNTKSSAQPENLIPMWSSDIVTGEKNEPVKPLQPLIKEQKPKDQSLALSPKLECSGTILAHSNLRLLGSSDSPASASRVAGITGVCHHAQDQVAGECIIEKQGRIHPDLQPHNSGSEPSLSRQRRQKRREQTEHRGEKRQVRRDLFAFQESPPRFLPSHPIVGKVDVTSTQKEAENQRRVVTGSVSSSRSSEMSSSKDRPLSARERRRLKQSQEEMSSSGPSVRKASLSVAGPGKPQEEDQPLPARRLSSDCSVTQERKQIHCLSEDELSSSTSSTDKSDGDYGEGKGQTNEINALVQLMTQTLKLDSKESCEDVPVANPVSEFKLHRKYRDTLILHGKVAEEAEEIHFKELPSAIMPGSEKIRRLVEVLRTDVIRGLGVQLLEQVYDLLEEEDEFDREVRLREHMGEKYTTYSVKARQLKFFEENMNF
Chain of Misshapen-like kinase 1 (Q8N4C8 whole entry): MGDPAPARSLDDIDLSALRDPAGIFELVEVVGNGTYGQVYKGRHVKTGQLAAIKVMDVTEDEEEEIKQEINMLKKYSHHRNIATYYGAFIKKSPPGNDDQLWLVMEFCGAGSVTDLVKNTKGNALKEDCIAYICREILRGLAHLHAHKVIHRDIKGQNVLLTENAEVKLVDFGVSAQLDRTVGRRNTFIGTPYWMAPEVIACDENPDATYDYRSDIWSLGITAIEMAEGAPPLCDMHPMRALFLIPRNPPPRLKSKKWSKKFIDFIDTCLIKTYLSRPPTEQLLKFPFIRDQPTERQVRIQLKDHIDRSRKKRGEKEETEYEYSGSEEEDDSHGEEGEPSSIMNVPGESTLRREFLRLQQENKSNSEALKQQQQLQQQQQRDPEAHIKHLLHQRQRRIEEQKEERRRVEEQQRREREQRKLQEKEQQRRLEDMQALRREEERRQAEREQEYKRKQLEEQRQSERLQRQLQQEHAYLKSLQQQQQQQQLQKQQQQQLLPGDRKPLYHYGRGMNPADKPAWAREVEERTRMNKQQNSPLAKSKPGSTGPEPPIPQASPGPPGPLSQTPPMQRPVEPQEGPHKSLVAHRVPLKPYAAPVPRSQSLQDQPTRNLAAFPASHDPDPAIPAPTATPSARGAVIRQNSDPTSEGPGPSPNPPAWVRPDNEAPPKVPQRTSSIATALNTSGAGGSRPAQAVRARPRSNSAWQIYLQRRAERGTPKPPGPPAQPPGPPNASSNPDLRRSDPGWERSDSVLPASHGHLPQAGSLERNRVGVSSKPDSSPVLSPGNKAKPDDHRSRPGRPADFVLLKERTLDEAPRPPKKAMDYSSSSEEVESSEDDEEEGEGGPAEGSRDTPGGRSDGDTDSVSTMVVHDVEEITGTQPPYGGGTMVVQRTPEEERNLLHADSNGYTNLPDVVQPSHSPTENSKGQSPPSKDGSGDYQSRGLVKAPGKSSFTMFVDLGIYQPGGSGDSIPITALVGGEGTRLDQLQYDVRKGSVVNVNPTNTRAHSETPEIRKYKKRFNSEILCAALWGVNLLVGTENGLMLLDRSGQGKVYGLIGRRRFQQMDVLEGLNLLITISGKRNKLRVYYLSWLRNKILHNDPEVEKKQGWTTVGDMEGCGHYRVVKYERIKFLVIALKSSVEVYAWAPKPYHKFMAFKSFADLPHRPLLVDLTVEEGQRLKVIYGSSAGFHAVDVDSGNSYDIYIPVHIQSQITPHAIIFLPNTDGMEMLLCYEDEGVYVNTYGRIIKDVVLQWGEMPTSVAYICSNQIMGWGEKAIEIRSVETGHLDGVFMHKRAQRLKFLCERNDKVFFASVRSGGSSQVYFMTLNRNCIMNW
Chain of Mitogen-activated protein kinase kinase kinase 20 (Q9NYL2 whole entry): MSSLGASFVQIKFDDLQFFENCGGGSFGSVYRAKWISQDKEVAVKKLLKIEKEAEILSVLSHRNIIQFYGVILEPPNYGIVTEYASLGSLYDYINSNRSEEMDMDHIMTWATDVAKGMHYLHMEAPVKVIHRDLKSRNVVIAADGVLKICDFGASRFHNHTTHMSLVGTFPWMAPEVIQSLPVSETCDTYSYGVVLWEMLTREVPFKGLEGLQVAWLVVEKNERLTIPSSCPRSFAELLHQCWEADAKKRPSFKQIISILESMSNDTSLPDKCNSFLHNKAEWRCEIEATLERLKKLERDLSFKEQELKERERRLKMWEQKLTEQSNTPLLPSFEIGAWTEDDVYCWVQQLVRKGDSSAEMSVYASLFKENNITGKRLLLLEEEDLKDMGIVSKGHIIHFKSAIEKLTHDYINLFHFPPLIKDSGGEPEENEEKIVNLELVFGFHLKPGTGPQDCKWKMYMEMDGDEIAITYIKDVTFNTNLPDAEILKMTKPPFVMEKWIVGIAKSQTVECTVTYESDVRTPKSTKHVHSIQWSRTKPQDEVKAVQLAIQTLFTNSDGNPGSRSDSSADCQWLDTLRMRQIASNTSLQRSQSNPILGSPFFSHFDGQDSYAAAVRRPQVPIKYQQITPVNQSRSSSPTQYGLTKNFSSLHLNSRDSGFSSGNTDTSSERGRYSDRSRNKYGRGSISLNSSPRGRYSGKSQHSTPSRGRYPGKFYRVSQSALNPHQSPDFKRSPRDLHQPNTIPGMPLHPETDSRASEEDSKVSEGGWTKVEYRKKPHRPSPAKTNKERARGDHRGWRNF
Chain of LIM domain kinase 1 (P53667 whole entry, the tested form may be a part): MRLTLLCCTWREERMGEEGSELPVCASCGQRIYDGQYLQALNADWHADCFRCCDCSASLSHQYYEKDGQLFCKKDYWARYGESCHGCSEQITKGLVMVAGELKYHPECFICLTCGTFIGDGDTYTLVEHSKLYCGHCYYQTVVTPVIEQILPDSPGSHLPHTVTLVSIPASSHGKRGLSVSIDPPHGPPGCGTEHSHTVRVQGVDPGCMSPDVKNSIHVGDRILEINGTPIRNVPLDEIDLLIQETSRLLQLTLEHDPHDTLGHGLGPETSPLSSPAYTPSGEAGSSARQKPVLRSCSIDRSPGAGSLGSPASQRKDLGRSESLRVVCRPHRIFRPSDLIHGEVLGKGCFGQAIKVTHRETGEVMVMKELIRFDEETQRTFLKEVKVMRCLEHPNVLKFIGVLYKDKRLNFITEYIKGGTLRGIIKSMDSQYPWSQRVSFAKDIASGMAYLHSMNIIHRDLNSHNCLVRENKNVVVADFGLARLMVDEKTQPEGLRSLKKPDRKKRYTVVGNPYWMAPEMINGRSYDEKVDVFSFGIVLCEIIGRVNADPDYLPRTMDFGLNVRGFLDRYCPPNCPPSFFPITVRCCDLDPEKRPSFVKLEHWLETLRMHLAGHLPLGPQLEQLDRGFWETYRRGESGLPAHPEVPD

## Cc1ccc(C(=O)NC2(O)C(=O)c3ccccc3C2=O)cc1C
[1]
  IC50: 3.48 µM (active)

## O=[N+]([O-])c1c(Nc2ccccn2)cc(Cl)c2nonc12
[2]
  EC50: 5.14 µM (inconclusive)
[3]
  EC50: 5.38 µM (active)
[4]
  EC50: 5.44 µM (inconclusive)
[5]
  IC50: 0.32 µM (active)
[6]
  IC50: 20 µM (active)

## CC[C@@H](C)[C@H](CNC)NC[C@@H](Cc1cccc2ccccc12)NCCc1cccc(C(F)(F)F)c1
[7]
  EC50: 8.36 µM (active)
[8]
  EC50: 7.84 µM (active)
[9]
  EC50: > 54.7 µM (inactive)

## Cc1ccc(S(=O)(=O)/N=C2\C=C(Nc3cccc(C(=O)O)c3)C(=O)c3ccccc32)cc1
[10]
  IC50: 0.524 µM (active)

## CC(C)(CO)CNc1nccc(-c2c(-c3ccc(F)cc3)nc3c(CC4CC4)nccn23)n1
[11]
  Ki: > 7.94 µM (inactive)
[12]
  Ki: > 10 µM (inactive)
[13]
  Ki: > 5.01 µM (inactive)
[14]
  Ki: > 10 µM (inactive)
[15]
  Ki: > 2 µM (inactive)
[16]
  Ki: > 1.58 µM (inactive)
[17]
  Ki: 0.126 µM (active)
[18]
  Ki: > 7.94 µM (inactive)
[19]
  Ki: > 7.94 µM (inactive)
[20]
  Ki: > 2.51 µM (inactive)
[21]
  Ki: > 1.58 µM (inactive)
[22]
  Ki: > 7.94 µM (inactive)
[23]
  Ki: 3.16 µM (active)
[24]
  Ki: > 6.31 µM (inactive)
[25]
  Ki: > 1.58 µM (inactive)
[26]
  Ki: > 7.94 µM (inactive)
[27]
  Ki: > 10 µM (inactive)
[28]
  Ki: > 0.794 µM (inactive)
[29]
  Ki: > 10 µM (inactive)
[30]
  Ki: > 10 µM (inactive)
[31]
  Ki: 3.98 µM (active)
[32]
  Ki: > 10 µM (inactive)
